Experiments:
[1] = target: T1, Aromatase (Homo sapiens, UniProt P11511); assay: Inhibition of human recombinant aromatase at 0.6 uM
T1 sequence (P11511 whole entry): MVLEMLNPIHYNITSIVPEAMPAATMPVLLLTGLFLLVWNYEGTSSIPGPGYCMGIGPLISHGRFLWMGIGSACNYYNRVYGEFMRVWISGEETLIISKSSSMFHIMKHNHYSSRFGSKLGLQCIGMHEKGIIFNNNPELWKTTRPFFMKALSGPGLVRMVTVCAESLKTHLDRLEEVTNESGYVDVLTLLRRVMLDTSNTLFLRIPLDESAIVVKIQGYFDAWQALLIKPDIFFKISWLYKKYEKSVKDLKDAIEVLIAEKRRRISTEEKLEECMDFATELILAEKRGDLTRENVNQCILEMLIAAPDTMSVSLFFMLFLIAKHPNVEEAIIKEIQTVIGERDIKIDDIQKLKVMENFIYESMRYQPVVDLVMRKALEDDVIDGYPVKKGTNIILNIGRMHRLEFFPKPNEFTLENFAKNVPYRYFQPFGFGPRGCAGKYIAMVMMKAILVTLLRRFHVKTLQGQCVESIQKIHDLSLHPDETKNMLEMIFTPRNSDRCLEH

[2] = system: human gammaherpesvirus 4; assay: Inhibition of TPA-induced EBV early antigen activation at 16 uM
[3] = system: human gammaherpesvirus 4; assay: Inhibition of TPA-induced EBV early antigen activation at 0.32 uM
[4] = system: human gammaherpesvirus 4; assay: Inhibition of TPA-induced EBV early antigen activation at 32 uM
[5] = system: human gammaherpesvirus 4; assay: Inhibition of TPA-induced EBV early antigen activation at 3.2 uM
[6] = system: KB; assay: Cytotoxicity against human KB cells; assay type: functional, cell-based
[7] = target: T1, Aromatase; assay: Inhibition of human recombinant aromatase at 1 uM
[8] = target: T1, Aromatase; assay: Inhibition of human recombinant aromatase at 10 uM
[9] = target: T1, Aromatase; assay: Inhibition of human recombinant aromatase at 3 uM
[10] = target: T1, Aromatase; assay: Inhibition of human recombinant aromatase at 0.3 uM

## C[C@]12CCC(=O)C(O)=C1CC[C@@H]1[C@@H]2CC[C@]2(C)C(=O)CC[C@@H]12 [FORMESTANE]
[1]
  inhibition at 0.6 µM: 63.7%

## CC1=C(/C=C/C(C)=C/C=C/C(C)=C/C=C/C=C(C)/C=C/C=C(C)/C=C/C2=C(C)CCCC2(C)C)C(C)(C)CCC1
[2]
  inhibition: 66%
[3]
  inhibition: 0%
[4]
  inhibition: 91%
[5]
  inhibition: 18%

## COc1c(O)c2c(c(O)c1C(C)C)[C@@H](C=O)[C@H]1C(C)(C)CCC[C@]21C [TAIWANIAQUINOL C]
[6]
  EC50: 8.1 µM

## COC(=O)[C@H]1C2=C(C(=O)C(O)=C(C(C)C)C2=O)[C@@]2(C)CCCC(C)(C)[C@H]12 [TAIWANIQUINONE E]
[6]
  EC50: > 10 µM

## COc1cc([C@@H]2c3cc4c(cc3[C@@H](O[C@@H]3O[C@@H]5CO[C@@H](C)O[C@H]5[C@H](O)[C@H]3O)[C@H]3COC(=O)[C@H]23)OCO4)cc(OC)c1O [ETOPOSIDE]
[6]
  EC50: 1.1 µM

## CC(C)C1=C(O)C(=O)C2=C(C1=O)C(C=O)=C1C(C)(C)CCC[C@]21C [TAIWANIAQUINONE D]
[6]
  EC50: 7.2 µM

## COC1=C(C(C)C)C(=O)C2=C(C1=O)[C@@]1(C)CCCC(C)(C)C1=C2 [TAIWANIAQUINONE H]
[6]
  EC50: > 10 µM

## CC(C)c1cc(C=O)c2c(c1O)[C@H](O)[C@H]1C(C)(C)CCC[C@]21C
[2]
  inhibition: 32%
[3]
  inhibition: 0%
[4]
  inhibition: 85.9%
[5]
  inhibition: 16.7%

## CC(C)c1c(O)c2c(c3c1OCO3)[C@@]1(C)CCCC(C)(C)[C@@H]1[C@H]2C=O [TAIWANIAQUINOL A]
[6]
  EC50: 8.3 µM

## CC(C)C1=C(O)C(=O)C2=C(C1=O)[C@H](C=O)[C@H]1C(C)(C)CCC[C@]21C [TAIWANIQUINONE A]
[6]
  EC50: 6.9 µM

## COC1=C(C(C)C)C(=O)C2=C(C1=O)[C@@]1(C)CCCC(C)(C)[C@@H]1C2 [TAIWANIAQUINONE G]
[6]
  EC50: > 10 µM

## CC[C@@H](C)CC[C@H]1[C@@H](C)CC[C@H]2C(C)(C)CCC[C@]12C
[2]
  inhibition: 51.9%
[3]
  inhibition: 4.5%
[4]
  inhibition: 92.3%
[5]
  inhibition: 22.2%

## COc1c(O)c2c(c(O)c1C(C)C)C(C=O)=C1C(C)(C)CCC[C@@]12C [TAIWANIAQUINOL D]
[6]
  EC50: 3.5 µM

## CC(=O)Oc1c(C(C)C)cc(C=O)c2c1[C@H](OC(C)=O)[C@H]1C(C)(C)CCC[C@]21C [STANDISHINAL DIACETATE]
[2]
  inhibition: 30.5%
[7]
  inhibition at 1 µM: 38.6%
[3]
  inhibition: 0%
[4]
  inhibition: 84.5%
[5]
  inhibition: 11.1%

## COC1=C(C(C)C)C(=O)C2=C(C1=O)[C@@]1(C)CCCC(C)(C)[C@@H]1[C@H]2C=O [TAIWANIAQUINONE]
[6]
  EC50: 4.4 µM

## COc1c(O)c2c(c(O)c1C(C)C)C(=O)[C@@H]1C(C)(C)CCC[C@]21C [TAIWANIAQUINOL B]
[6]
  EC50: > 10 µM

## CC(=O)N1CCN(c2ccc(OCC3COC(Cn4ccnc4)(c4ccc(Cl)cc4Cl)O3)cc2)CC1 (configuration not stated) [KETOCONAZOLE]
[8]
  inhibition at 10 µM: 92.5%
[9]
  inhibition at 3 µM: 83.8%
[10]
  inhibition at 0.3 µM: 89.3%

## N#Cc1ccc(C(c2ccc(C#N)cc2)n2cncn2)cc1 [LETROZOLE]
[8]
  inhibition at 10 µM: 87.9%
[9]
  inhibition at 3 µM: 87.5%
[10]
  inhibition at 0.3 µM: 81.7%

## COc1c(O)c2c(c(O)c1C(C)C)C(=O)[C@@H]1C(C)(C)C(=O)CC[C@]21C [TAIWANIAQUINOL F]
[6]
  EC50: > 10 µM

## COc1c(O)c2c(c(O)c1C(C)C)C(=O)[C@H]1C(C)(C)CCC[C@]21C [TAIWANIAQUINOL E]
[6]
  EC50: > 10 µM

— ChEMBL document CHEMBL1154905, “The taiwaniaquinoids: a review” (J Nat Prod, 2010)
